Reference: the supplement of paper PMC10307832

Key:
Assay in all cases: relative viability (nuclei count vs DMSO), 5 days (fraction); higher = more cells survive
Olaparib + Bortezomib = compound: O=C(c1cc(Cc2n[nH]c(=O)c3ccccc23)ccc1F)N1CCN(C(=O)C2CC2)CC1 [Olaparib] + CC(C)C[C@H](NC(=O)[C@H](Cc1ccccc1)NC(=O)c1cnccn1)B(O)O [Bortezomib] (partner 0.002 µM)
How it was run: (§1)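 Relative viability was taken as the ratio of nuclei in treated wells to nuclei in vehicle wells. Lung cancer cell lines in 1536-well plates received compounds by pin tool one day after seeding, either one drug alone or a fixed anchor-drug dose plus five library-drug doses (not always all listed) in √10 steps. Nuclei were counted on 4× images after 5 days of treatment, and values are medians of duplicate plates.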

Carfilzomib + Navitoclax = compound: CC(C)C[C@H](NC(=O)[C@H](CCc1ccccc1)NC(=O)CN1CCOCC1)C(=O)N[C@@H](Cc1ccccc1)C(=O)N[C@@H](CC(C)C)C(=O)[C@@]1(C)CO1 [Carfilzomib] + CC1(C)CCC(c2ccc(Cl)cc2)=C(CN2CCN(c3ccc(C(=O)NS(=O)(=O)c4ccc(N[C@H](CCN5CCOCC5)CSc5ccccc5)c(S(=O)(=O)C(F)(F)F)c4)cc3)CC2)C1 [Navitoclax] (partner 0.5 µM)
How it was run: as §1

Crizotinib + Linsitinib = compound: C[C@@H](Oc1cc(-c2cnn(C3CCNCC3)c2)cnc1N)c1c(Cl)ccc(F)c1Cl [Crizotinib] + C[C@]1(O)C[C@@H](c2nc(-c3ccc4ccc(-c5ccccc5)nc4c3)c3c(N)nccn32)C1 [Linsitinib] (partner 1 µM)
How it was run: as §1

Carfilzomib + Linsitinib = compound: CC(C)C[C@H](NC(=O)[C@H](CCc1ccccc1)NC(=O)CN1CCOCC1)C(=O)N[C@@H](Cc1ccccc1)C(=O)N[C@@H](CC(C)C)C(=O)[C@@]1(C)CO1 [Carfilzomib] + C[C@]1(O)C[C@@H](c2nc(-c3ccc4ccc(-c5ccccc5)nc4c3)c3c(N)nccn32)C1 [Linsitinib] (partner 1 µM)
How it was run: as §1

Cell Line	relative viability (Olaparib + Bortezomib; first compound 0.08 µM)	relative viability (Olaparib + Bortezomib; first compound 0.253 µM)	relative viability (Olaparib + Bortezomib; first compound 2.53 µM)	relative viability (Olaparib + Bortezomib; first compound 8 µM)	relative viability (Carfilzomib + Navitoclax; first compound 0.001 µM)	relative viability (Carfilzomib + Navitoclax; first compound 0.003162 µM)	relative viability (Carfilzomib + Navitoclax; first compound 0.01 µM)	relative viability (Carfilzomib + Navitoclax; first compound 0.03162 µM)	relative viability (Carfilzomib + Navitoclax; first compound 0.1 µM)	relative viability (Crizotinib + Linsitinib; first compound 0.01 µM)	relative viability (Crizotinib + Linsitinib; first compound 0.1 µM)	relative viability (Crizotinib + Linsitinib; first compound 0.3162 µM)	relative viability (Crizotinib + Linsitinib; first compound 1 µM)	relative viability (Carfilzomib + Linsitinib; first compound 0.001 µM)	relative viability (Carfilzomib + Linsitinib; first compound 0.003162 µM)	relative viability (Carfilzomib + Linsitinib; first compound 0.01 µM)	relative viability (Carfilzomib + Linsitinib; first compound 0.03162 µM)	relative viability (Carfilzomib + Linsitinib; first compound 0.1 µM)	relative viability (Crizotinib + Linsitinib; first compound 0.03162 µM)
201T	1.19	1.03	1.11	1.07	1.14	1.23	1.22	1.23	1.18	1.02	1.04	1.03	1.12	0.992	1.07	1.1	1.09	1.02	
A549					1.17	1.21	1.24	0.0372	0.0397	0.527	0.52		0.707	0.478	0.756	0.546	0.231	0.0396	0.568
A-427	1.03	0.96	0.877	0.673	0.954	1.01	1.04	0.644	0.113	1.1	1.16		1.1	1.12	1.11	1.11	1.01	0.119	1.12
ABC-1	0.308	0.332	0.323	0.33						0.95	1.12	1.09		0.837	0.665	0.527	0.235	0.242	0.843
BEN	0.651	0.632	0.881	0.829	0.0574	0.0653	0.0797	0.0533	0.047	0.843	0.818	1.04	0.916	0.968	1.21	0.965	0.865	0.392	0.844
CAL-12T	1.16	0.842	1.04	1.03		0.996	1.22	0.822	0.104	0.753	0.708	0.748		0.836	0.923	0.876	0.57	0.112	0.904
COR-L23	1.06	0.862	0.92	0.474	1.1	1.14	0.724	0.0667	0.0704		0.844	0.802	0.925	0.939	1.05	0.867	0.0469	0.0604	0.876
COR-L 105	0.936	0.85	0.464	0.426	0.885	0.628	0.643	0.353	0.298	1.14	0.929	0.956	0.972	0.937	1.05	0.879	0.297	0.249	1
Calu-6	1.13	0.959	0.796	0.777	0.885	0.997	0.561	0.0829	0.0768	0.939	0.861	0.938	0.955	0.941	1.15	0.934	0.202	0.08	1.05
ChaGo-K-1	1.27	0.96	1.02	0.845		1.58	1.01	0.693	0.385										
EBC-1	0.654	0.541	0.523	0.472	0.415	0.288	0.184	0.13	0.139		0.889	0.159	0.167	0.87	0.989	0.735	0.0736	0.0886	0.886
EKVX	1.42	0.987	0.995	0.994	0.992	1	1.21	0.427	0.346	1	1.02	1	0.975	0.927	1.2	1.08	1.01	0.33	0.998
EMC-BAC-2	1.09	1.04	1.07	0.967	1.15	1.21	1.22	1.12	0.527	0.758	0.809	0.798	0.81	0.78	0.786	0.844	0.836	0.401	0.834
EPLC-272H	1.1	0.819	0.965	0.848	1.07	1.15	0.839	0.09	0.0751	1.18	1.17	1.14	1.27	1.04	1.32	1.16	0.193	0.0783	1.11
H3255	0.935	0.728	0.703	0.728	0.676	0.63	0.663	0.37	0.151	0.806	0.974	0.841	0.962	0.942	1.06	0.995	0.739	0.373	0.924
HARA	1.25	1.04	1.06	0.769	1.1	1.14	1.21	0.0941	0.0841	0.919	0.778	0.976	0.873	0.89	1.03	1.07	0.0722	0.0537	0.978
HCC-15	1.18	0.984	1.03	0.9	0.667	0.728	0.762	0.423	0.148	0.819	0.864	0.886	0.946	0.847	0.958	0.937	0.765	0.168	0.934
HCC-44	0.915	0.873	0.952	0.893	0.94	1.01	1	0.829	0.261	0.646	0.595	0.704	0.719	0.592	0.75	0.673	0.487	0.174	0.721
